These are literature values, as cited in article PMC12362594, “Design, Synthesis and Preclinical Evaluation of a Brain-Permeable PET Tracer for P2Y12 Receptor Imaging in the Brain” (Journal of Medicinal Chemistry, 2025).

The series deals with P2Y12 receptor. The arrangement: method as in not given. The note with it: Chinese hamster ovarian cell membranes; reported values from literature; ref not given; cited from earlier work.

As for `CCOC(=O)c1cc(C#N)c(N2CCC(C(=O)NS(=O)(=O)Cc3ccccc3)CC2)nc1C` [Compound 5, Ethyl 6-(4-((Benzylsulfonyl)-carbamoyl)-piperidin-1-yl)-5-cyano-2-methylnicotinate, reference compound], the IC50 was 11 nM.
